Reference: PubChem BioAssay (NCI)
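Protocol summary: plate cells (96-well), add compound at 5 concentrations, incubate 48 h, interpolate endpoints linearly. Here, GI50 denotes the concentration required for 50% inhibition of growth. Definition used: TGI = concentration required for complete inhibition of growth.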

Tests used:
Assay in all cases: inhibition of tumour cell growth, NCI panel, 48 h
NCI-H23 lung = tested on: NCI-H23 lung
NCI-H460 lung = tested on: NCI-H460 lung
NCI-H522 lung = tested on: NCI-H522 lung
NCI/ADR-RES ovarian = tested on: NCI/ADR-RES ovarian
OVCAR-3 ovarian = tested on: OVCAR-3 ovarian
OVCAR-4 ovarian = tested on: OVCAR-4 ovarian
OVCAR-5 ovarian = tested on: OVCAR-5 ovarian
OVCAR-8 ovarian = tested on: OVCAR-8 ovarian
PC-3 prostate = tested on: PC-3 prostate
RPMI-8226 leukemia = tested on: RPMI-8226 leukemia
RXF 393 renal = tested on: RXF 393 renal
SF-268 CNS = tested on: SF-268 CNS
SF-295 CNS = tested on: SF-295 CNS
SF-539 CNS = tested on: SF-539 CNS
SK-MEL-2 melanoma = tested on: SK-MEL-2 melanoma
SK-MEL-28 melanoma = tested on: SK-MEL-28 melanoma
SK-MEL-5 melanoma = tested on: SK-MEL-5 melanoma
SK-OV-3 ovarian = tested on: SK-OV-3 ovarian
SN12C renal = tested on: SN12C renal
SNB-19 CNS = tested on: SNB-19 CNS
SNB-75 CNS = tested on: SNB-75 CNS
SR leukemia = tested on: SR leukemia
SW-620 colon = tested on: SW-620 colon
T-47D breast = tested on: T-47D breast
TK-10 renal = tested on: TK-10 renal
U251 CNS = tested on: U251 CNS
UACC-257 melanoma = tested on: UACC-257 melanoma
UACC-62 melanoma = tested on: UACC-62 melanoma
UO-31 renal = tested on: UO-31 renal

CC(=O)C1=C(O)C=C2Oc3c(C(=O)/C=C/c4cc(Cl)cc(Cl)c4)c(O)c(C)c(O)c3[C@]2(C)C1=O
TGI (NCI-H23 lung): 2.05 µM | GI50 (NCI-H460 lung): 0.528 µM | TGI (NCI-H460 lung): 1.77 µM | GI50 (NCI-H522 lung): 0.334 µM | TGI (NCI-H522 lung): 0.919 µM | GI50 (NCI/ADR-RES ovarian): 0.537 µM | TGI (NCI/ADR-RES ovarian): 1.96 µM | GI50 (OVCAR-3 ovarian): 0.417 µM | TGI (OVCAR-3 ovarian): 1.23 µM | GI50 (OVCAR-4 ovarian): 0.565 µM | TGI (OVCAR-4 ovarian): 7.17 µM | GI50 (OVCAR-5 ovarian): 0.72 µM | TGI (OVCAR-5 ovarian): 8.57 µM | GI50 (OVCAR-8 ovarian): 0.496 µM | TGI (OVCAR-8 ovarian): 2.26 µM | GI50 (PC-3 prostate): 0.537 µM | TGI (PC-3 prostate): 2.04 µM | GI50 (RPMI-8226 leukemia): 0.452 µM | TGI (RPMI-8226 leukemia): 1.14 µM | GI50 (RXF 393 renal): 0.541 µM | TGI (RXF 393 renal): 1.62 µM | GI50 (SF-268 CNS): 0.67 µM | TGI (SF-268 CNS): 3.38 µM | GI50 (SF-295 CNS): 0.36 µM | TGI (SF-295 CNS): 0.887 µM | GI50 (SF-539 CNS): 0.552 µM | TGI (SF-539 CNS): 2.26 µM | GI50 (SK-MEL-2 melanoma): 0.365 µM | TGI (SK-MEL-2 melanoma): 0.924 µM | GI50 (SK-MEL-28 melanoma): 0.637 µM | TGI (SK-MEL-28 melanoma): 2.76 µM | GI50 (SK-MEL-5 melanoma): 0.424 µM | TGI (SK-MEL-5 melanoma): 1.05 µM | GI50 (SK-OV-3 ovarian): 0.449 µM | TGI (SK-OV-3 ovarian): 1.33 µM | GI50 (SN12C renal): 0.534 µM | TGI (SN12C renal): 2.45 µM | GI50 (SNB-19 CNS): 0.582 µM | TGI (SNB-19 CNS): 3.06 µM | GI50 (SNB-75 CNS): 1.66 µM | TGI (SNB-75 CNS): 4.06 µM | GI50 (SR leukemia): 0.459 µM | TGI (SR leukemia): 4.35 µM | GI50 (SW-620 colon): 0.527 µM | TGI (SW-620 colon): 2.21 µM | GI50 (T-47D breast): 0.435 µM | TGI (T-47D breast): 1.36 µM | GI50 (TK-10 renal): 0.446 µM | TGI (TK-10 renal): 1.68 µM | GI50 (U251 CNS): 0.41 µM | TGI (U251 CNS): 1.06 µM | GI50 (UACC-257 melanoma): 0.535 µM | TGI (UACC-257 melanoma): 2.5 µM | GI50 (UACC-62 melanoma): 0.434 µM | TGI (UACC-62 melanoma): 1.62 µM | GI50 (UO-31 renal): 0.392 µM | TGI (UO-31 renal): 1.03 µM
